The source of these data is patent US20160287589A1, “SUBSTITUTED-IMIDAZOPYRIDAZINES” (BAYER PHARMA AKTIENGESELLSCHAFT, priority 2013, published 2016).

The target of experiment [1] is T1, MKNK1 (Homo sapiens, UniProt Q9BUB5, T385D).
T1 construct: GST (N); purchased Carna Biosciences 02-145; host or cells: insect cells (baculovirus expression system)
As to the kind of experiment: MKNK1 kinase assay (MKNK1 TR-FRET assay). In kind it is biochemical. The note with it: 10 μM ATP, 15 min preincubation. An excerpt: MKNK1-inhibitory activity of compounds of the present invention was quantified employing the MKNK1 TR-FRET assay as described in the following paragraphs.
A recombinant fusion protein of Glutathione-S-Transferase (GST, N-terminally) and human full-lengt MKNK1 (amino acids 1-424 and T344D of accession number BAA 19885.1), expressed in insect cells using baculovirus expression system and purified via glutathione sepharose affinity chromatography, was purchased from Carna Biosciences (product no 02-145) and used as enzyme. As substrate for the kinase reaction the biotinylated peptide biotin-Ahx-IKKRKLTRRKSLKG (C-terminus in amide form) was used which can be purchased e.g. form the company Biosyntan (Berlin-Buch, Germany).
For the assay 50 nL of a 100 fold concentrated solution of the test compound in DMSO was pipetted into a black low volume 384 well microtiter plate (Greiner Bio-One, Frickenhausen, Germany), 2 μL of a solution of MKNK1 in aqueous assay buffer [50 mM HEPES pH 7.5, 5 mM magnesium chloride, 1.0 mM dithiothreitol, 0.005% (v/v) Nonidet-P40 (Sigma)] was added and the mixture was incubated for 15 min at 22° C. to allow pre-binding of the test compounds to the enzyme before the start of the kinase reaction. […] The concentration of MKNK1 was adjusted depending of the activity of the enzyme lot and was chosen appropriate to have the assay in the linear range, typical concentrations were in the range of […]. The reaction was stopped by the addition of 5 μL of a solution of TR-FRET detection reagents (5 nM streptavidine-XL665 [Cisbio Bioassays, Codolet, France] and 1 nM anti-ribosomal protein S6 (pSer236)-antibody from Invitrogen [#44921G] and 1 nM LANCE EU-W1024 labeled ProteinG [Perkin-Elmer, product no. AD0071]) in an aqueous EDTA-solution (100 mM EDTA, 0.1% (w/v) bovine serum albumin in 50 mM HEPES pH 7.5).
The resulting mixture was incubated for 1 h at 22° C. to allow the formation of complex between the phosphorylated biotinylated peptide and the detection reagents. Subsequently the amount of phosphorylated substrate was evaluated by measurement of the resonance energy transfer from the Eu-chelate to the streptavidine-XL. Therefore, the fluorescence emissions at 620 nm and 665 nm after excitation at 350 nm were measured in a TR-FRET reader, e.g. a Rubystar (BMG Labtechnologies, Offenburg, Germany) or a Viewlux (Perkin-Elmer). The ratio of the emissions at 665 nm and at […] was taken as the measure for the amount of phosphorylated substrate. The data were normalised (enzyme reaction without inhibitor=0% inhibition, all other assay components but no enzyme=100% inhibition).

For experiment [2], the target named is T1, MKNK1. As to the kind of experiment: MKNK1 kinase high ATP assay (TR-FRET-based). In kind it is biochemical. The note with it: 2 mM ATP, 15 min preincubation. The essentials:
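TR-FRET read-out (anti-phospho-S6 Ser236 antibody, Eu/XL665) of biotin-peptide phosphorylation (0.06 μM) at high ATP (2 mM final). Enzyme was GST-MKNK1 full length, T344D, pre-bound to compound for 15 min before a 30 min reaction at 22 °C, pH 7.5. Inhibition scaled between no-inhibitor (0%) and no-enzyme (100%) wells.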
(In general: TR-FRET usually uses a lanthanide donor and a delayed reading to cut background.)

The structures appear in SMILES notation.

T1 sequence (Q9BUB5 1-424 isoform Q9BUB5-2 T344D): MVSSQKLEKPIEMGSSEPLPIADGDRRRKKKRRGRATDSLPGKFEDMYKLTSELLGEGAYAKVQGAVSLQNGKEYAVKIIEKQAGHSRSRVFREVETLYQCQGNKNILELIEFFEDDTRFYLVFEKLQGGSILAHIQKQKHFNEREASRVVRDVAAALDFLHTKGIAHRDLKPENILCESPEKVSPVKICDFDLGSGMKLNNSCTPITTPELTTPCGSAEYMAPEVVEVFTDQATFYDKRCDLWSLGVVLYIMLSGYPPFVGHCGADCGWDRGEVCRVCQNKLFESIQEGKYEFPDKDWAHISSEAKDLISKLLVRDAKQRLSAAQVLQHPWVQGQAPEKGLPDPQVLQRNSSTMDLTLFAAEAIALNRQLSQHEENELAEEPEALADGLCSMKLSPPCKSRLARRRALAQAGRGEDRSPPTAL

One may read the IC50 as the point on the concentration scale where inhibition reaches its midpoint. Low readings indicate greater potency, high ones weaker potency. `O=C(CC1CC1)NCCOc1ccc2ncc(-c3cc4ccccc4o3)n2n1` [Example I-76, N-(2-{[3-(1-Benzofuran-2-yl)imidazo[1,2-b]-pyridazin-6-yl]oxy}ethyl)-2-cyclopropylacetamide]: the IC50 on MKNK1 [1] (Table 1a) worked out at 7.3 nM; against MKNK1 [2] (Table 2a), 21.1 nM.

`Cn1cc(C(=O)N2CCC[C@H]2CCOc2ccc3ncc(-c4cc5ccccc5o4)n3n2)cn1` [Example I-48, [(2S)-2-(2-{[3-(1-Benzofuran-2-yl)imidazo[1,2-b]-pyridazin-6-yl]oxy}ethyl)pyrrolidin-1-yl](1-methyl-1H-pyrazol-4-yl)methanone]: the IC50 on MKNK1 [1] (Table 1a) was found to be 1.8 nM; against MKNK1 [2] (Table 2a) it was 2.3 nM.

For the compound `COc1ccc2ncc(-c3cc4c(N5CCNC(C)(C)C5)nccc4o3)n2n1` [III-130, 3-[4-(3,3-dimethylpiperazin-1-yl)furo[3,2-c]pyridin-2-yl]-6-methoxy-imidazo[1,2-b]pyridazine], the IC50 against MKNK1 [1] (Table 1c) is 5.3 nM; against MKNK1 [2] (Table 2c), 1.5 nM.

Turning to `CC(C)(C)[Si](C)(C)OC[C@H]1CCCN1c1nccc2oc(-c3cnc4ccc(OC[C@H]5CCC(=O)N5)nn34)cc12` [III-66, (5R)-5-{[(3-{4-[(2R)-2-({[tert-Butyl(dimethyl)silyl]oxy}methyl)pyrrolidin-1-yl]furo[3,2-c]pyridin-2-yl}imidazo[1,2-b]pyridazin-6-yl)oxy]methyl}pyrrolidin-2-one], the IC50 against MKNK1 [1] (Table 1c) was 4.2 nM; at MKNK1 [2] (Table 2c), 8.5 nM.

`NC(=O)COc1ccc2ncc(-c3cc4ccccc4o3)n2n1` [Example I-24, 2-{[3-(1-Benzofuran-2-yl)imidazo[1,2-b]pyridazin-6-yl]oxy}acetamide]: the IC50 is 12.5 nM on MKNK1 [1] (Table 1a) and 20.7 nM against MKNK1 [2] (Table 2a).

For the compound `O=C(C1CCCO1)N1CCC[C@H]1CCOc1ccc2ncc(-c3cc4ccccc4o3)n2n1` (stereo partly drawn) [Example I-53, [(2S)-2-(2-{[3-(1-Benzofuran-2-yl)imidazo[1,2-b]-pyridazin-6-yl]oxy}ethyl)pyrrolidin-1-yl](tetrahydrofuran-2-yl)methanone], the IC50 worked out at 2.4 nM on MKNK1 [1] (Table 1a) and 3.5 nM on MKNK1 [2] (Table 2a).

For the compound `CCN(CCOC(C)(C)C)c1nccc2oc(-c3cnc4ccc(OC[C@H]5CCC(=O)N5)nn34)cc12` [III-80, (5R)-5-{[(3-{4-[(2-tert-Butoxyethyl)(ethyl)amino]furo[3,2-c]pyridin-2-yl}imidazo[1,2-b]pyridazin-6-yl)oxy]methyl}pyrrolidin-2-one], the IC50 at MKNK1 [1] (Table 1c) worked out at 0.4 nM; on MKNK1 [2] (Table 2c), 0.2 nM.

Turning to `O=C1CCC(CCOc2ccc3ncc(-c4cc5ccccc5o4)n3n2)N1` (centres unmarked) [Example I-26, 5-(2-{[3-(1-Benzofuran-2-yl)imidazo[1,2-b]pyridazin-6-yl]oxy}ethyl)pyrrolidin-2-one], the IC50 on MKNK1 [1] (Table 1a) came out at 9 nM; against MKNK1 [2] (Table 2a) it was 23 nM.

`c1cc(N2CCOCC2)c2cc(-c3cnc4ccc(OC[C@H]5CNCCO5)nn34)oc2c1` [II-1, 3-[4-(Morpholin-4-yl)-1-benzofuran-2-yl]-6-[(2R)-morpholin-2-ylmethoxy]-imidazo[1,2-b]pyridazine]: the IC50 at MKNK1 [1] (Table 1b) came to 8.5 nM; at MKNK1 [2] (Table 2b), 20 nM.

For the compound `COc1nccc2oc(-c3cnc4ccc(OC[C@H]5CN(C(=O)C6CC6)CCO5)nn34)cc12` [IV-8, Cyclopropyl[(2R)-2-({[3-(4-methoxyfuro[3,2-c]pyridin-2-yl)imidazo[1,2-b]-pyridazin-6-yl]oxy}methyl)morpholin-4-yl]methanone], the 50% inhibitory concentration (IC50) at MKNK1 [1] (Table 1d) is 4 nM; at MKNK1 [2] (Table 2d), 10 nM.

In the case of `O=C1CC[C@H](COc2ccc3ncc(-c4cc5c(N6CCOCC6)cccc5o4)n3n2)N1` [II-5, (5R)-5-[({3-[4-(Morpholin-4-yl)-1-benzofuran-2-yl]imidazo[1,2-b]pyridazin-6-yl}oxy)methyl]pyrrolidin-2-one], the IC50 worked out at 15 nM at MKNK1 [1] (Table 1b) and 27 nM on MKNK1 [2] (Table 2b).

On to `CN1CCN(c2nccc3oc(-c4cnc5ccc(OC[C@H]6CCC(=O)N6)nn45)cc23)CC1` [III-61, (5R)-5-[({3-[4-(4-Methylpiperazin-1-yl)furo[3,2-c]pyridin-2-yl]imidazo[1,2-b]pyridazin-6-yl}oxy)methyl]pyrrolidin-2-one], for which the IC50 at MKNK1 [1] (Table 1c) came out at 1 nM; at MKNK1 [2] (Table 2c), 1.2 nM.

Take `COc1ccc2ncc(-c3cc4c(N5CCN[C@H](C)C5)cccc4o3)n2n1` [II-39, 6-methoxy-3-{4-[(3R)-3-methylpiperazin-1-yl]-1-benzofuran-2-yl}imidazo[1,2-b]pyridazine]: the IC50 is 1.6 nM against MKNK1 [1] (Table 1b) and 1.1 nM against MKNK1 [2] (Table 2b).

Turning to `O=C(CC1CC1)N1CCC[C@H]1CCOc1ccc2ncc(-c3cc4ccccc4o3)n2n1` [Example I-51, 1-[(2S)-2-(2-{[3-(1-Benzofuran-2-yl)imidazo[1,2-b]-pyridazin-6-yl]oxy}ethyl)pyrrolidin-1-yl]-2-cyclopropylethanone], the values for the IC50 against MKNK1 [1] (Table 1a) and at MKNK1 [2] (Table 2a) were 2.1 nM and 3.2 nM, respectively.

Take `O=C1NCCN1CCOc1ccc2ncc(-c3cc4ccccc4o3)n2n1` [Example I-18, 1-(2-{[3-(1-Benzofuran-2-yl)imidazo[1,2-b]pyridazin-6-yl]oxy}ethyl)-imidazolidin-2-one]: the IC50 worked out at 7.1 nM at MKNK1 [1] (Table 1a) and 13.8 nM at MKNK1 [2] (Table 2a).

With `CCN(CCOC)c1cccc2oc(-c3cnc4ccc(OCCCS(C)(=O)=O)nn34)cc12` [II-23, N-Ethyl-N-(2-methoxyethyl)-2-{6-[3-(methylsulfonyl)propoxy]imidazo[1,2-b]-pyridazin-3-yl}-1-benzofuran-4-amine], the IC50 was 2 nM against MKNK1 [1] (Table 1b) and 1.9 nM against MKNK1 [2] (Table 2b).

As to `COc1cccc2oc(-c3cnc4ccc(OC[C@H]5CN(C(=O)C(F)(F)F)CCO5)nn34)cc12` [Example I-20, 2,2,2-Trifluoro-1-[(2R)-2-({[3-(4-methoxy-1-benzofuran-2-yl)imidazo[1,2-b]-pyridazin-6-yl]oxy}methyl)morpholin-4-yl]ethanone], the IC50 against MKNK1 [1] (Table 1a) turned out to be 7.7 nM; against MKNK1 [2] (Table 2a), 15.5 nM.

In the case of `COc1cccc2oc(-c3cnc4ccc(OCCN5CCNC5=O)nn34)cc12` [Example I-12, 1-(2-{[3-(4-methoxy-1-benzofuran-2-yl)imidazo[1,2-b]pyridazin-6-yl]oxy}ethyl)-imidazolidin-2-one], the IC50 at MKNK1 [1] (Table 1a) came out at 3.5 nM; at MKNK1 [2] (Table 2a), 10.2 nM.

Consider `CCN(CCOC)c1nccc2oc(-c3cnc4ccc(OC[C@H]5COCCN5)nn34)cc12` [III-38, N-Ethyl-N-(2-methoxyethyl)-2-{6-[(3R)-morpholin-3-ylmethoxy]imidazo[1,2-b]pyridazin-3-yl}furo[3,2-c]pyridin-4-amine], for which the IC50 against MKNK1 [1] (Table 1c) is 0.5 nM; at MKNK1 [2] (Table 2c) it was 4.8 nM.

With `CC(=O)N1CCC[C@H]1CCOc1ccc2ncc(-c3cc4ccccc4o3)n2n1` [Example I-2, 1-[(2S)-2-(2-{[3-(1-Benzofuran-2-yl)imidazo[1,2-b]pyridazin-6-yl]oxy}ethyl)-pyrrolidin-1-yl]ethanone], the IC50 is 1.8 nM at MKNK1 [1] (Table 1a) and 3.1 nM at MKNK1 [2] (Table 2a).

On to `COc1ccc2oc(-c3cnc4ccc(OCCN5CCNC5=O)nn34)cc2c1` [Example I-33, 1-(2-{[3-(5-Methoxy-1-benzofuran-2-yl)imidazo[1,2-b]pyridazin-6-yl]oxy}ethyl)imidazolidin-2-one], for which the IC50 on MKNK1 [1] (Table 1a) was 15.5 nM; against MKNK1 [2] (Table 2a) it was 40.5 nM.

For the compound `C[C@H](N)COc1ccc2ncc(-c3cc4c(N5CCOC[C@@H]5C)cccc4o3)n2n1` [II-31, (2S)-1-[(3-{4-[(3S)-3-methylmorpholin-4-yl]-1-benzofuran-2-yl}imidazo[1,2-b]pyridazin-6-yl)oxy]propan-2-amine], the IC50 came to 24.2 nM on MKNK1 [1] (Table 1b) and 35.5 nM against MKNK1 [2] (Table 2b).
